Laboratory results taken from the NIST ThermoML archive (doi:10.1021/je030163d).
± gives the expanded uncertainty stated by the source.

Assays:
[1] = 101.3 kPa, Liquid; for viscosity: Capillary tube (Ostwald / Ubbelohde) method; for mass density: Pycnometric method
[2] = xn = mol fraction of the nth substance listed; conditions: 101.3 kPa, Liquid, x1 = 1; for viscosity: Capillary tube (Ostwald / Ubbelohde) method; for mass density: Pycnometric method

Row | viscosity ([1]; 298.15 K) [mPa·s] | mass density ([1]; 298.15 K) [kg/m3] | viscosity ([1]; 303.15 K) [mPa·s] | mass density ([1]; 303.15 K) [kg/m3] | viscosity ([1]; 308.15 K) [mPa·s] | mass density ([1]; 308.15 K) [kg/m3] | viscosity ([1]; 313.15 K) [mPa·s] | mass density ([1]; 313.15 K) [kg/m3] | viscosity ([2]; 298.15 K) [mPa·s] | mass density ([2]; 298.15 K) [kg/m3] | viscosity ([2]; 303.15 K) [mPa·s] | mass density ([2]; 303.15 K) [kg/m3] | viscosity ([2]; 308.15 K) [mPa·s] | mass density ([2]; 308.15 K) [kg/m3] | viscosity ([2]; 313.15 K) [mPa·s] | mass density ([2]; 313.15 K) [kg/m3] | Compound
1 | 1.68 ± 0.013 | 1024.1 ± 0.6 | 1.54 ± 0.012 | 1019.9 ± 0.6 | 1.41 ± 0.011 | 1015.7 ± 0.6 | 1.31 ± 0.01 | 1011.2 ± 0.6 | – | – | – | – | – | – | – | – | CC(=O)c1ccccc1 [acetophenone]
2 | 5.16 ± 0.031 | 1041.3 ± 0.4 | 4.67 ± 0.028 | 1037.5 ± 0.4 | 4.004 ± 0.024 | 1033.7 ± 0.4 | 3.52 ± 0.021 | 1029.4 ± 0.4 | – | – | – | – | – | – | – | – | OCc1ccccc1 [benzenemethanol]
3 | – | – | – | – | – | – | – | – | 0.803 ± 0.006 | 944.5 ± 0.3 | 0.756 ± 0.006 | 939.8 ± 0.3 | 0.71 ± 0.005 | 935.1 ± 0.3 | 0.673 ± 0.005 | 930.2 ± 0.4 | CN(C)C=O [dimethylformamide] + OCc1ccccc1
4 | 0.803 ± 0.006 | 944.5 ± 0.3 | 0.756 ± 0.006 | 939.8 ± 0.3 | 0.71 ± 0.005 | 935.1 ± 0.3 | 0.673 ± 0.005 | 930.2 ± 0.4 | – | – | – | – | – | – | – | – | CN(C)C=O [dimethylformamide]
5 | – | – | – | – | – | – | – | – | 0.803 ± 0.006 | 944.5 ± 0.3 | 0.756 ± 0.006 | 939.8 ± 0.3 | 0.71 ± 0.005 | 935.1 ± 0.3 | 0.673 ± 0.005 | 930.2 ± 0.4 | CN(C)C=O [dimethylformamide] + CC(=O)c1ccccc1
